Legend:
Format in all cases: biochemical
Sirt2 = target: T1, Sirt2 (Homo sapiens, UniProt Q8IXJ6); assay: Fluorimeter delipoylation assay of probe KTlip with Sirt2
T1 construct: made in house
T1 sequence (Q8IXJ6 1-389): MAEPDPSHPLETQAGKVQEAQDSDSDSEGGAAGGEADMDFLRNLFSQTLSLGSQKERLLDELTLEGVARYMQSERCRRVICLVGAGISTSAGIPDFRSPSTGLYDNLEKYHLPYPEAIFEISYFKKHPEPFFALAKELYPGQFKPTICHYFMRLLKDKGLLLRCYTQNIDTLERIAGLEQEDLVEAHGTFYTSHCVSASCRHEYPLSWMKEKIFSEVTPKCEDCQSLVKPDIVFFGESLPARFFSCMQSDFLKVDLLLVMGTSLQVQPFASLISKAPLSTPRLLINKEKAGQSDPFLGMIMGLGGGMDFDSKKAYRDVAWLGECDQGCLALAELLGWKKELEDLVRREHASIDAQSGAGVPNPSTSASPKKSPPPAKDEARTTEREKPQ
Procedure: (§1) The probe KTlip following was first synthesized. The capacity of HDACs to recognize and remove the lipoyl group of KTlip was then examined by a fluorimeter assay. Briefly, KTlip was incubated with various HDACs at 37° C. in HEPES buffer (pH 8.0). The fluorescence of the enzymatic reactions was then measured accordingly. […] Further HPLC and MS analysis confirmed that the molecular weight of the newly generated peak corresponded to the expected tandem delipoylated/exchanged product (FIG. 4A,B). […] After enzymatic reaction with Sirt2, a shift of peak absorption from 380 nm to 480 nm was clearly observed. (FIG. 4C). Through detailed kinetic study, the first-order rate constant of the reaction was determined to be 0.013 min−1. […]
(§2) The probe KTlip was incubated with sirtuin and NAD+ at 37° C. in 20 mM HEPES buffer (pH 8.0) containing 150 mM NaCl, 1 mM MgCl2, and 2.7 mM KCl. […] When the enzymatic reaction was complete, the reaction was applied for absorption and fluorescence measurement. The parameter set for absorbance measurement was as follows: UV-visible light, collection region: 300-550 nm. The parameter set for fluorescence measurements was as follows: λex=480 nm, slit width: 5 nm, collection region: 510-600 nm.

Sirt1 = target: T2, Sirt1 (Homo sapiens, UniProt Q96EB6); assay: Fluorimeter delipoylation assay of probe KTlip with Sirt1; details: KTlip incubated with Sirt1 at 37° C. in HEPES buffer (pH 8.0); compared with Sirt2
T2 construct: made in house
T2 sequence (Q96EB6 1-747): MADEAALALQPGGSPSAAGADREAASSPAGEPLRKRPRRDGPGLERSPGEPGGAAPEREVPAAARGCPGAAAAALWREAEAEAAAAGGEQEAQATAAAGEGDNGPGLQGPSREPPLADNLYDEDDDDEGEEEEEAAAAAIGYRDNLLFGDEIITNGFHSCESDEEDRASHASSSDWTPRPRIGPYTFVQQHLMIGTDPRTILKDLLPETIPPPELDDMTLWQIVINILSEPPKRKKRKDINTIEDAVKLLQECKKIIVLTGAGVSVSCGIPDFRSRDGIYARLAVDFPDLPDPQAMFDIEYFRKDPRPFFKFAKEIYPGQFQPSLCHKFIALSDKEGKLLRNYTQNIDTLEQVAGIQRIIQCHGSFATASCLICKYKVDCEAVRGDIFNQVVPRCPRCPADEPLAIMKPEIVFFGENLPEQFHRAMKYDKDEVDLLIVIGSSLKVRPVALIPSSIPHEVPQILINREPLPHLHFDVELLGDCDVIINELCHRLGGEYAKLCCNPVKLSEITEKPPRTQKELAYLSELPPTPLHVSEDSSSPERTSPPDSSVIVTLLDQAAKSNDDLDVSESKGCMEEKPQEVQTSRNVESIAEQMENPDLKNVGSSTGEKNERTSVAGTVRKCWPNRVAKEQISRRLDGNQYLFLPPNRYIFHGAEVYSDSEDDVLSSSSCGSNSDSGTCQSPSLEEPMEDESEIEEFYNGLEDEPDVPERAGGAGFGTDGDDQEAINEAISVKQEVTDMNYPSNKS
Procedure: as §1, §2

Sirt3 = target: T3, Sirt3 (Homo sapiens, UniProt Q9NTG7); assay: Fluorimeter delipoylation assay of probe KTlip with Sirt3; details: KTlip incubated with Sirt3 at 37° C. in HEPES buffer (pH 8.0)
T3 construct: made in house
T3 sequence (Q9NTG7 1-399): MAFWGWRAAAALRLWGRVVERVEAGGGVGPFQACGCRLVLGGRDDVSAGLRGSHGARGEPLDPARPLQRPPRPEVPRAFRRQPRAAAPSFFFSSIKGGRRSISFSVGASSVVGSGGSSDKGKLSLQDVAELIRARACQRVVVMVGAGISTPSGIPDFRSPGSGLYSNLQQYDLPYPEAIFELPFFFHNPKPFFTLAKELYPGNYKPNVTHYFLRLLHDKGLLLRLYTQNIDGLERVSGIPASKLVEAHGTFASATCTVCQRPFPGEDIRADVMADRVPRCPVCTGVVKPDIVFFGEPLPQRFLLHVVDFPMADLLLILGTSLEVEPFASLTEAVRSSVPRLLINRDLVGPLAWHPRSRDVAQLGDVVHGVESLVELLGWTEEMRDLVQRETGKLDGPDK
Procedure: as §1, §2

Sirt5 = target: T4, Sirt5 (Homo sapiens, UniProt Q9NXA8); assay: Fluorimeter delipoylation assay of probe KTlip with Sirt5; details: KTlip incubated with Sirt5 at 37° C. in HEPES buffer (pH 8.0)
T4 construct: made in house
T4 sequence (Q9NXA8 37-310): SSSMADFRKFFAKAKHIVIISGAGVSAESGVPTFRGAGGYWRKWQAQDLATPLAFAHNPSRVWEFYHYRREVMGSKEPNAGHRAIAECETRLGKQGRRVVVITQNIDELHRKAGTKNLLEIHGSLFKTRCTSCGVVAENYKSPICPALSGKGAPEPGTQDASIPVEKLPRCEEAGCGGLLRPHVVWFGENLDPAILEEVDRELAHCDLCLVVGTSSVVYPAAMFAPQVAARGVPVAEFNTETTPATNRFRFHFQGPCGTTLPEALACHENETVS
Procedure: as §1, §2

Sirt6 = target: T5, Sirt6 (Homo sapiens, UniProt Q8N6T7); assay: Fluorimeter delipoylation assay of probe KTlip with Sirt6; details: KTlip incubated with Sirt6 at 37° C. in HEPES buffer (pH 8.0)
T5 construct: made in house
Procedure: as §1, §2

HDAC8 [1] = target: T6, HDAC8 (Homo sapiens, UniProt Q9BY41); assay: Fluorimeter delipoylation assay of probe KTlip with HDAC8; details: KTlip incubated with HDAC8 at 37° C. in HEPES buffer (pH 8.0)
T6 sequence (Q9BY41 1-377): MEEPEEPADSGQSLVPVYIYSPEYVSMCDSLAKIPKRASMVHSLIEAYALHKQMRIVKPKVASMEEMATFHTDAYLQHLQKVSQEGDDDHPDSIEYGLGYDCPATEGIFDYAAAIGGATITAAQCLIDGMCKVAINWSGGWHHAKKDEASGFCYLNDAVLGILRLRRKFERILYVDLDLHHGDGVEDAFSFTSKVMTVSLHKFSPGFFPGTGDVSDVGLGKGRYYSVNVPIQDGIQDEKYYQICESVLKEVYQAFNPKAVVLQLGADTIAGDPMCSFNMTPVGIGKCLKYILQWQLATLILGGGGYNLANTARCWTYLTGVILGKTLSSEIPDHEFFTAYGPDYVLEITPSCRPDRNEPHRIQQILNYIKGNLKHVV
Procedure: as §1, §2

HDAC8 [2] = target: T6, HDAC8; assay: HPLC analysis of the enzymatic reaction of KTlip with HDAC8; details: KTlip 40 μM, HDAC8 80 ng/μl, 20 mM HEPES pH 8.0, 2 hours reaction
Procedure: FIG. 6 depicts HPLC analysis of the enzymatic reaction of KTlip (40 μM) with HDAC8 (80 ng/μl) in the reaction buffer (20 mM HEPES buffer at pH 8.0, 150 mM NaCl, 1 mM MgCl2 and 2.7 mM KCl).
The probe KTlip following was first synthesized. The capacity of HDACs to recognize and remove the lipoyl group of KTlip was then examined by a fluorimeter assay. Briefly, KTlip was incubated with various HDACs at 37° C. in HEPES buffer (pH 8.0). The fluorescence of the enzymatic reactions was then measured accordingly. […] Further HPLC and MS analysis confirmed that the molecular weight of the newly generated peak corresponded to the expected tandem delipoylated/exchanged product (FIG. 4A,B). […] After enzymatic reaction with Sirt2, a shift of peak absorption from 380 nm to 480 nm was clearly observed. (FIG. 4C). Through detailed kinetic study, the first-order rate constant of the reaction was determined to be 0.013 min−1. The Km value of KTlip obtained from the fluorescent method matched well with that from the traditional HPLC method (FIG. 5), underscoring that probe KTlip can serve as a useful tool for detecting enzymatic delipoylation activity.

T5 sequence (Q8N6T7 whole entry, species assumed): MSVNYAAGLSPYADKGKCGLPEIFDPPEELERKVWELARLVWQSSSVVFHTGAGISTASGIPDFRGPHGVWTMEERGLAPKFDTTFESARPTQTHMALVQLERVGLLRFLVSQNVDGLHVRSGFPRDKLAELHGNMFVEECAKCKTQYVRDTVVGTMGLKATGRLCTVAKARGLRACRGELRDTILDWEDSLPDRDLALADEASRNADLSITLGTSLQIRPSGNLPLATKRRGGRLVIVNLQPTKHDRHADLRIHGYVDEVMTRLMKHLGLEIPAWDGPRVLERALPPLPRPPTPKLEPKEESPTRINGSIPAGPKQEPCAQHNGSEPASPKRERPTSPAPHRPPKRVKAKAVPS

CC(C)(C)OC(=O)N[C@@H](CCCCNC(=O)CCCCC1CCSS1)C(=O)NCCOCCOc1ccc([N+](=O)[O-])c2nonc12 (some centres unmarked) [KTlip]
fluorescence increase (Sirt2; KTlip incubated with Sirt2 at 37° C. in HEPES buffer (pH 8.0), NAD+, λex 480 nm): 60 fold | first-order rate constant of the reaction (Sirt2; delipoylation of KTlip by Sirt2, fit of fluorescence data to 1−exp(−kt)): 0.013 min⁻¹ | fluorescence signal (Sirt1): much lower fluorescence signal | fluorescence increase (Sirt3): did not show a noticeable fluorescence increase | fluorescence increase (Sirt5): did not show a noticeable fluorescence increase | fluorescence increase (Sirt6): did not show a noticeable fluorescence increase | fluorescence increase (HDAC8 [1]): did not show a noticeable fluorescence increase | delipoylated product (HPLC) (HDAC8 [2]): no delipoylated product observed

From US20220009915A1, “CHEMICAL PROBES AND METHODS OF USE THEREOF” (City University of Hong Kong, priority 2020, published 2022)
